Source: US9464106B2, “Oligonucleotides useful for detecting and analyzing nucleic acids of interest” (Exiqon A/S, priority 2002, dated 2016)
l = locked nucleic acid (LNA); [5mC] = 5-methylcytosine; d = 2'-deoxy (DNA)

System: yeast HSP78 (YDR258C) sequence
Assay: Duplex melting temperatures of HSP78 25-mer capture probes (UV spectrophotometer)
Settings: 25-mer capture probe duplex with complementary target; design PM = perfectly matched, MM = single mismatch; DNA, LNA_T (T) or LNA_TC (TC) substituted

12680 (DNA ACCATCATCACCGAACTTTGTGTCG; DNA, backbone not given here) [compound 12680]
Average duplex melting temp.: 63.6 °C

12681 (DNA CAATGATCGTGTAACGGAAATCAAC; DNA, backbone not given here) [compound 12681]
Average duplex melting temp.: 59.3 °C

12682 (DNA TGGCCTAGGGAAACGGTCAGCTTAC; DNA, backbone not given here) [compound 12682]
Average duplex melting temp.: 65.2 °C

12683 (DNA TTGGAAACATCGCGGTGCGCTTTTT; DNA, backbone not given here) [compound 12683]
Average duplex melting temp.: 61.5 °C

12684 (DNA GAAACATCGGGGAGCGCTTTTTCAA; DNA, backbone not given here) [compound 12684]
Average duplex melting temp.: 63.8 °C

12685 (DNA GACAGCCTCAGTAAATTGGCCACCA; DNA, backbone not given here) [compound 12685]
Average duplex melting temp.: 64.8 °C

12686 (DNA CCGATTAAACGACAGACAGTATGCT; DNA, backbone not given here) [compound 12686]
Average duplex melting temp.: 57.1 °C

12687 (DNA ATCAAATAGGAAATCAGCTAAAGCC; DNA, backbone not given here) [compound 12687]
Average duplex melting temp.: 54.3 °C

12688 (DNA GACCTAAGAACAAAAAGCTGGCAAT; DNA, backbone not given here) [compound 12688]
Average duplex melting temp.: 58.2 °C

12689 (DNA AAATAGCAGCAAAGGCCTCGTCTTG; DNA, backbone not given here) [compound 12689]
Average duplex melting temp.: 64 °C

12690 (DNA ATAGCAGCAATGCCCTCGTCTTGGC; DNA, backbone not given here) [compound 12690]
Average duplex melting temp.: 62.9 °C

12691 (DNA GCAATGGCCTCGACTTGGCCAACGA; DNA, backbone not given here) [compound 12691]
Average duplex melting temp.: 68.5 °C

12692 (DNA GATGAACTCAGGAGGATAGGATCTT; DNA, backbone not given here) [compound 12692]
Average duplex melting temp.: 58.2 °C

12693 (DNA TCAGTTAGCCAAACCTTCGCTTCAT; DNA, backbone not given here) [compound 12693]
Average duplex melting temp.: 61.4 °C

12694 (DNA GTTGCCATGGAGATCAAAATCTGTC; DNA, backbone not given here) [compound 12694]
Average duplex melting temp.: 60 °C

12695 (DNA AGACGTACAGCAACAGAAATAGCAG; DNA, backbone not given here) [compound 12695]
Average duplex melting temp.: 61.2 °C

12696 (DNA TTTGGTAGCACGTCAAGCTTAGTAT; DNA, backbone not given here) [compound 12696]
Average duplex melting temp.: 59.2 °C

12697 (DNA ATAAAGCTGGCATTAGGTCTCTTTT; DNA, backbone not given here) [compound 12697]
Average duplex melting temp.: 58.4 °C

12698 (DNA TTTTTCGGCCAATCGATCTTGAATT; DNA, backbone not given here) [compound 12698]
Average duplex melting temp.: 58.8 °C

12699 (DNA CACTCTAACAGTATCGCCGTTTCTA; DNA, backbone not given here) [compound 12699]
Average duplex melting temp.: 61.1 °C

12700 (DNA TCAATGGCCTTGGACCATATAATTG; DNA, backbone not given here) [compound 12700]
Average duplex melting temp.: 59.5 °C

12701 (DNA AAAACGACAGCAAAAGGCTTTCTTC; DNA, backbone not given here) [compound 12701]
Average duplex melting temp.: 58.8 °C

12702 (DNA ATTGACCTCAAATCTTTCTTGGATA; DNA, backbone not given here) [compound 12702]
Average duplex melting temp.: 54.5 °C

12703 (DNA CCCAACTTTGTGACGTTTAATAAAA; DNA, backbone not given here) [compound 12703]
Average duplex melting temp.: 56.2 °C

12704 (DNA ACCATCATCACCGAACTTTGTGTCG; DNA at ACG, LNA at T, backbone not given here) [compound 12704]
Average duplex melting temp.: 74 °C

12705 (DNA CAATGATCGTGTAACGGAAATCAAC; sugars from the 5' end dddlddlddlddddddddddldddd, backbone not given here) [compound 12705]
Average duplex melting temp.: 65.2 °C

12706 (DNA TGGCCTAGGGAAACGGTCAGCTTAC; DNA at ACG, LNA at T, backbone not given here) [compound 12706]
Average duplex melting temp.: 71.6 °C

12707 (DNA TTGGAAACATCGCGGTGCGCTTTTT; sugars from the 5' end lldddddddldddddlddddlllld, backbone not given here) [compound 12707]
Average duplex melting temp.: 68.6 °C

12708 (DNA GAAACATCGGGGAGCGCTTTTTCAA; sugars from the 5' end d6 l1 d10 l5 d3, backbone not given here) [compound 12708]
Average duplex melting temp.: 69.9 °C

12709 (DNA GACAGCCTCAGTAAATTGGCCACCA; sugars from the 5' end d7 l1 d7 l2 d8, backbone not given here) [compound 12709]
Average duplex melting temp.: 68.8 °C

12710 (DNA CCGATTAAACGACAGACAGTATGCT; sugars from the 5' end ddddlldddddddddddddldlddd, backbone not given here) [compound 12710]
Average duplex melting temp.: 63.5 °C

12711 (DNA ATCAAATAGGAAATCAGCTAAAGCC; sugars from the 5' end dlddddldddddddddddldddddd, backbone not given here) [compound 12711]
Average duplex melting temp.: 58.1 °C

12712 (DNA GACCTAAGAACAAAAAGCTGGCAAT; sugars from the 5' end d4 l1 d13 l1 d6, backbone not given here) [compound 12712]
Average duplex melting temp.: 61.1 °C

12713 (DNA AAATAGCAGCAAAGGCCTCGTCTTG; DNA at ACG, LNA at T, backbone not given here) [compound 12713]
Average duplex melting temp.: 70.4 °C

12714 (DNA ATAGCAGCAATGCCCTCGTCTTGGC; DNA at ACG, LNA at T, backbone not given here) [compound 12714]
Average duplex melting temp.: 71.3 °C

12715 (DNA GCAATGGCCTCGACTTGGCCAACGA; DNA at ACG, LNA at T, backbone not given here) [compound 12715]
Average duplex melting temp.: 73.7 °C

12716 (DNA GATGAACTCAGGAGGATAGGATCTT; sugars from the 5' end ddlddddlddddddddlddddldld, backbone not given here) [compound 12716]
Average duplex melting temp.: 64.9 °C

12717 (DNA TCAGTTAGCCAAACCTTCGCTTCAT; sugars from the 5' end ldddlldddddddddlldddllddd, backbone not given here) [compound 12717]
Average duplex melting temp.: 69.4 °C

12718 (DNA GTTGCCATGGAGATCAAAATCTGTC; sugars from the 5' end dllddddldddddddddddldldld, backbone not given here) [compound 12718]
Average duplex melting temp.: 69.2 °C

12719 (DNA AGACGTACAGCAACAGAAATAGCAG; sugars from the 5' end d5 l1 d13 l1 d5, backbone not given here) [compound 12719]
Average duplex melting temp.: 65 °C

12720 (DNA TTTGGTAGCACGTCAAGCTTAGTAT; sugars from the 5' end lllddlddddddddddddllddldd, backbone not given here) [compound 12720]
Average duplex melting temp.: 68.6 °C

12721 (DNA ATAAAGCTGGCAAAAGGTCTCTTTT; sugars from the 5' end dldddddldddddddddldldllld, backbone not given here) [compound 12721]
Average duplex melting temp.: 67.2 °C

12722 (DNA TTTTTCGGCCAATCGATCTTGAATT; sugars from the 5' end ldllldddddddddddldlldddld, backbone not given here) [compound 12722]
Average duplex melting temp.: 65.9 °C

12723 (DNA CACTCTAACAGTATCGCCGTTTCTA; sugars from the 5' end dddldldddddddddddddllldld, backbone not given here) [compound 12723]
Average duplex melting temp.: 69.7 °C

12724 (DNA TCAATGGCCTTGGACCATATAATTG; DNA at ACG, LNA at T, backbone not given here) [compound 12724]
Average duplex melting temp.: 69.7 °C

12725 (DNA AAAACGACAGCAAAAGGCTTTCTTC; sugars from the 5' end d18 l3 d1 l2 d1, backbone not given here) [compound 12725]
Average duplex melting temp.: 65.9 °C

12726 (DNA ATTGACCTCAAATCTTTCTTGGATA; sugars from the 5' end dllddddlddddddllldlldddld, backbone not given here) [compound 12726]
Average duplex melting temp.: 65.1 °C

12727 (DNA CCCAACTTTGTGACGTTTAATAAAA; DNA at ACG, LNA at T, backbone not given here) [compound 12727]
Average duplex melting temp.: 66.5 °C

12728 (DNA ACCATCATCACCCAACCTTGTGTCG; sugars from the 5' end dlddlddldddddddddlddlddld, [5mC] at 2, 24, backbone not given here) [compound 12728]
Average duplex melting temp.: 70.2 °C

12729 (DNA CAATGATCGTGTTACGGAAATCAAC; sugars from the 5' end lddlddlldlddddldddddllddd, [5mC] at 1, 8, 15, 22, backbone not given here; further chemistry not fully specified) [compound 12729]
Average duplex melting temp.: 75.5 °C

12730 (DNA TGGCCTAGGGAAACGGTCAGCTTAC; sugars from the 5' end lddldlddddddddddldddldldd, [5mC] at 4, 21, backbone not given here) [compound 12730]
Average duplex melting temp.: 75.5 °C
